Measurements from patent US9988644B2, “Compounds for improved viral transduction” (bluebird bio, Inc., priority 2011, dated 2018).

Columns and labels:
CD34+ cells [1] = assay: Vector Copy Number analysis (qRT-PCR, viral LTR vs human beta-actin) after GFP+ lentivirus transduction; assay type: cell-based
Experimental: Pre-stimulated cells (Example 1) were counted after 18-24 hours of culture. The cells were collected and spun for 5 minutes at 1500 RPM. 1.2×10^6 pre-stimulated CD34^+ cells were resuspended in 60 uL 10× cytokines (1000 ng/mL SCF, 1000 ng/mL TPO, 1000 ng/mL FltL, and 300 ng/mL IL-3), 7.8 uL protamine sulfate, 111 uL viral supernatant, and 361.2 uL SCGM. 90 uL cell/virus suspension (about 200,000 cells) was added to each well of a standard non-adherent 96-well plate. dmPGE2 was added during this viral transduction step at a final concentration of 100 uM, 50 uM, 25 uM, 12.5 uM, 1 uM, or 0 uM.
Washed cells were resuspended in 200 uL SCGM+1× cytokines (as described in Example 1) and transferred to a standard 12-well non-adherent tissue culture plate containing an additional 800 uL SCGM+1× cytokines Cells were maintained for an additional 6 days in a standard humidified tissue culture incubator (5% CO2) and then subjected Vector Copy Number analysis (Example 5) and FACS analysis. For FACS analysis, cells were assayed for the presence of a virally-encoded transgene, green fluorescent protein (GFP). The frequency of the virally-labeled cells within the pool of cultured cells was quantified as the frequency of GFP+ cells within the population. The mean fluorescence intensity of labeled cells was quantified.
Briefly, total genomic DNA was isolated from cells through standard protocols (for example, through DNEasy columns from Qiagen). Genomic DNA was subjected to quantitative real-time polymerase chain reaction (qRT-PCR) with TaqMan probes for viral LTR and human beta-actin. The Ct values for viral signal and beta-actin signal were normalized to a standardized control, and the number of viral copies per copy of beta actin were calculated. A linear relationship between the vector copy number and the mean fluorescence intensity (Example 4) was observed when a viral construct that encodes GFP was used.
Tables 3A-C indicate the dose-response of dmPGE2 in promoting viral transduction of CD34+ cells for three separate experiments. CD34+ cells were thawed and pre-stimulated with SCF, TPO, FltL, and IL3, then transduced (A) with GFP+ lentivirus at a multiplicity of infection of 25, (B) with GFP+ lentivirus at a multiplicity of infection of 5, or (C) transduced with an ALD (ABCD1)-expressing lentivirus at a multiplicity of infection of 25. Cells were exposed to dmPGE2 during the viral transduction step (24-48 hours of culture). Cells were then washed and analyzed by flow cytometry and PCR after approximately 1 week in culture. The percentage of cells positive for GFP (A, B) or ALD (C) via FACS staining is indicated, along with the mean fluorescent intensity (MFI) and vector copy number (VCN) (A, B).

CD34+ cells [2] = assay: Time-course and dose-response of dmPGE2 in promoting viral transduction (GFP+ lentivirus, flow cytometry); assay type: cell-based, human; conditions: GFP+ lentivirus MOI 25; for percentage of cells positive for GFP, Pre-Stim w/PGE2 Minus 2 Hr: 22-24 hours of culture; for percentage of cells positive for GFP, Pre-Stim w/PGE2 Minus 1 Hr: 23-24 hours of culture; for percentage of cells positive for GFP, Virus and PGE2 Plus 1 Hr: 24-25 hours of culture; for percentage of cells positive for GFP, Virus and PGE2 Plus 2 Hr: 24-26 hours of culture; for percentage of cells positive for GFP, Virus and PGE2 Plus 4 Hr: 24-28 hours of culture; for percentage of cells positive for GFP, Virus and PGE2 24 Hr: 24-48 hours of culture
Experimental: MCD-34+ cells were thawed and pre-stimulated with SCF, TPO, FltL and IL3, then transduced with GFP+ lentivirus at a multiplicity of infection of 25. Cells were exposed to dmPGE2 during the viral transduction step (24-25 hours of culture; 24-26 hours of culture; 24-28 hours of culture; or 24-48 hours of culture) and then washed and analyzed by flow cytometry after approximately 1 week in culture. Alternatively, cells were exposed to dmPGE2 during the pre-stimulation step (22-24 hours of culture; 23-24 hours of culture).

[3] = dmPGE2 1 uM during pre-stimulation
[4] = dmPGE2 12.5 uM during pre-stimulation
[5] = dmPGE2 25 uM during pre-stimulation
[6] = dmPGE2 50 uM during pre-stimulation
[7] = dmPGE2 100 uM during pre-stimulation

## CCCCC(C)(C)[C@H](O)/C=C/[C@H]1[C@H](O)CC(=O)[C@@H]1C/C=C\CCCC(=O)O [dmPGE2, 16,16-dimethyl PGE2]
CD34+ cells [1]; dmPGE2 12.5 uM during transduction, GFP MOI 5
  VCN (vector copy number): 0.18
CD34+ cells [1]; dmPGE2 12.5 uM during transduction, GFP MOI 25
  VCN (vector copy number): 1.5
CD34+ cells [1]; dmPGE2 25 uM during transduction, GFP MOI 5
  VCN (vector copy number): 0.21
CD34+ cells [1]; dmPGE2 25 uM during transduction, GFP MOI 25
  VCN (vector copy number): 1.7
CD34+ cells [1]; dmPGE2 50 uM during transduction, GFP MOI 5
  VCN (vector copy number): 0.715
CD34+ cells [1]; dmPGE2 50 uM during transduction, GFP MOI 25
  VCN (vector copy number): 2.2
CD34+ cells [1]; dmPGE2 100 uM during transduction, GFP MOI 5
  VCN (vector copy number): 0.83
CD34+ cells [1]; dmPGE2 100 uM during transduction, GFP MOI 25
  VCN (vector copy number): 3.55
CD34+ cells [2]; [3]
  percentage of cells positive for GFP, Pre-Stim w/PGE2 Minus 2 Hr: 25.74%
  percentage of cells positive for GFP, Pre-Stim w/PGE2 Minus 1 Hr: 22.29%
CD34+ cells [2]; dmPGE2 1 uM
  percentage of cells positive for GFP, Virus and PGE2 Plus 1 Hr: 2.94%
  percentage of cells positive for GFP, Virus and PGE2 Plus 2 Hr: 7.17%
  percentage of cells positive for GFP, Virus and PGE2 Plus 4 Hr: 21.10%
  percentage of cells positive for GFP, Virus and PGE2 24 Hr: 32.03%
CD34+ cells [2]; [4]
  percentage of cells positive for GFP, Pre-Stim w/PGE2 Minus 2 Hr: 30.64%
  percentage of cells positive for GFP, Pre-Stim w/PGE2 Minus 1 Hr: 22.13%
CD34+ cells [2]; dmPGE2 12.5 uM
  percentage of cells positive for GFP, Virus and PGE2 Plus 1 Hr: 1.97%
  percentage of cells positive for GFP, Virus and PGE2 Plus 2 Hr: 5.32%
  percentage of cells positive for GFP, Virus and PGE2 Plus 4 Hr: 28.08%
  percentage of cells positive for GFP, Virus and PGE2 24 Hr: 47.42%
CD34+ cells [2]; [5]
  percentage of cells positive for GFP, Pre-Stim w/PGE2 Minus 2 Hr: 31.90%
  percentage of cells positive for GFP, Pre-Stim w/PGE2 Minus 1 Hr: 24.05%
CD34+ cells [2]; dmPGE2 25 uM
  percentage of cells positive for GFP, Virus and PGE2 Plus 1 Hr: 1.76%
  percentage of cells positive for GFP, Virus and PGE2 Plus 2 Hr: 4.76%
  percentage of cells positive for GFP, Virus and PGE2 Plus 4 Hr: 27.46%
  percentage of cells positive for GFP, Virus and PGE2 24 Hr: 50.69%
CD34+ cells [2]; [6]
  percentage of cells positive for GFP, Pre-Stim w/PGE2 Minus 2 Hr: 31.85%
  percentage of cells positive for GFP, Pre-Stim w/PGE2 Minus 1 Hr: 22.98%
CD34+ cells [2]; dmPGE2 50 uM
  percentage of cells positive for GFP, Virus and PGE2 Plus 1 Hr: 1.85%
  percentage of cells positive for GFP, Virus and PGE2 Plus 2 Hr: 4.23%
  percentage of cells positive for GFP, Virus and PGE2 Plus 4 Hr: 27.45%
  percentage of cells positive for GFP, Virus and PGE2 24 Hr: 54.63%
CD34+ cells [2]; [7]
  percentage of cells positive for GFP, Pre-Stim w/PGE2 Minus 2 Hr: 34.85%
  percentage of cells positive for GFP, Pre-Stim w/PGE2 Minus 1 Hr: 25.14%
CD34+ cells [2]; dmPGE2 100 uM
  percentage of cells positive for GFP, Virus and PGE2 Plus 1 Hr: 2.48%
  percentage of cells positive for GFP, Virus and PGE2 Plus 2 Hr: 4.02%
  percentage of cells positive for GFP, Virus and PGE2 Plus 4 Hr: 21.57%
  percentage of cells positive for GFP, Virus and PGE2 24 Hr: 76.44%
